{"source": "patent US5248674A", "about": "“Percutaneous administration of 3'-azide'-deoxythymidine” (Nelson-Sumisho Co., Ltd., priority 1989, dated 1993)", "key": {"[1]": {"type": "in vitro ADME, rat (Wistar strain, male)", "settings": "rat skin; for promotion of AZT permeation through the skin (in words): in vitro, oleic acid vs water, Azone and S-318 vs 10% oleic acid; for F, AZT permeation rate: n = 3", "protocol": "A. The abdominal skin of a rat (Wistar strain, male, 200 g) was removed after shaving and placed between the chambers of a diffusion cell comprising two chambers having an effective permeation area of 0.95 cm^2 and a capacity of 2.3 ml for each chamber. The chamber of the corneum side received an AZT solution to be tested and the other chamber received water. The cell was warmed to 37° C. while the permeation of the drug towards the opposite chamber was measured. The AZT solution contained […] (5 mg/ml) AZT either in water or an aqueous solution of 10% oleic acid. […] The results are plotted In FIG. 1. The permeation rate during the stable permeation state (Fss) was determined as follows from the slope of the plots between 10 and 24 hours:\nB. In a manner similar to that described in A, further agents capable of promoting permeation of AZT were searched. The promotion rate by each of the tested agents was expressed in relative terms when the rate of 10% oleic acid is tentatively determined as 1.\nC. In the similar manner as in A and B, the permeation of AZT as a function of its concentration (3.7 mM-112 mM) was studied. 112 mM (about 3%) is a preferred concentration of AZT for practical purposes in producing a percutaneous AZT composition. The combination of a) 3% Azone+20% MP or b) 5% S-318+10% OA+20% PG+10% MP was used as a permeation promoting agent."}, "reverse transcriptases": {"tested_on": "reverse transcriptases", "settings": "background statement; cited from earlier work"}, "[2]": {"test": "In vivo study - percutaneous absorption of AZT without pretreatment with 10% oleic acid", "set-up": "species or system rat (Wistar strain, male)", "settings": "no pretreatment, rat", "protocol": "In a manner similar to that described in Example 2, the possibility of percutaneous absorption of AZT without pretreatment with 10% oleic acid was studied.\nAs absorption promoting agents, a) an aqueous solution containing 3% Azone and 20% MP, and b) an aqueous solution containing 5% S-318, 10% OA, 20% PG and 10% MP were prepared. AZT was dissolved at 3.7 mM concentration in each of said absorption agents and 1 ml of the resulting solution was applied to the skin of rats in a similar manner as in Example 2."}, "[3]": {"settings": "cited from earlier work"}, "[4]": {"test": "In vivo study - plasma AZT level by percutaneous (oleic acid pretreated skin) and oral administration of AZT", "set-up": "species or system rat (Wistar strain, male)", "settings": "for concentration at 0.5 h / concentration at 1 h / concentration at 2 h / concentration at 4 h / concentration at 6 h / concentration at 8 h / concentration at 24 h: plasma", "protocol": "Three male rates of Wistar strain weighing about 200 g was allotted to each group. The abdominal portion of the rat was shaven and pretreated with 10% oleic acid for 24 hours. Then a 1 ml aliquot of a solution containing 0.5% (18.7 mM) AZT and 10% oleic acid in water was applied over 4.9 cm^2 area of the skin by a glass cell secured on the body of the rat. AZT level in the plasma sampled at […], 2, 4, 6, 8 and 24 hours after the administration was determined by HPLC. A control group orally received 0.5 ml water containing 0.6 mg AZT."}, "[5]": {"settings": "according to Klecker et al. 1987"}, "[6]": {"settings": "3.7 mM (1 mg/ml) AZT, 3% Azone + 20% MP"}, "[7]": {"settings": "3.7 mM (1 mg/ml) AZT, 5% S-318 + 10% OA + 20% PG + 10% MP"}, "[8]": {"settings": "18.7 mM (5 mg/ml) AZT, 3% Azone + 20% MP"}, "[9]": {"settings": "18.7 mM (5 mg/ml) AZT, 5% S-318 + 10% OA + 20% PG + 10% MP"}, "[10]": {"settings": "56.2 mM (15 mg/ml) AZT, 3% Azone + 20% MP"}, "[11]": {"settings": "56.2 mM (15 mg/ml) AZT, 5% S-318 + 10% OA + 20% PG + 10% MP"}, "[12]": {"settings": "112 mM (30 mg/ml) AZT, 3% Azone + 20% MP"}, "[13]": {"settings": "112 mM (30 mg/ml) AZT, 5% S-318 + 10% OA + 20% PG + 10% MP"}, "[14]": {"settings": "topical or ocular, percutaneous, 1 ml 0.5% AZT + 10% oleic acid, 4.9 cm^2, rat"}, "[15]": {"settings": "oral, 0.6 mg AZT in 0.5 ml water, rat"}}, "note": "Where two headings read alike, the source gives them in different places.", "data": [{"molecule": "CCCCCCCCCCCCN1CCCCCC1=O", "note": "[Azone, 1-dodecylazacycloheptane-2-one]", "values": [{"measurement": "promotion of AZT permeation through the skin (in words)", "setting": "[1]", "value": "greatly accelerated"}]}, {"molecule": "Cc1cn([C@H]2C[C@H](N=[N+]=[N-])[C@@H](CO)O2)c(=O)[nH]c1=O", "note": "[AZT, 3'-azide-3'-deoxythymidine]", "values": [{"measurement": "inhibition of reverse transcriptases", "setting": "reverse transcriptases", "value": "effective inhibitor of reverse transcriptases"}, {"measurement": "AZT level in the plasma", "setting": "[2]; 3.7 mM AZT with a) 3% Azone + 20% MP or b) 5% S-318 + 10% OA + 20% PG + 10% MP", "value": "a high AZT level in the plasma was achieved over a period of 10 hours"}, {"measurement": "efficient penetration of AZT through the skin", "setting": "[2]; 3.7 mM AZT, promoting agent a) 3% Azone + 20% MP", "value": "especially remarkable"}, {"measurement": "clearance (Cltot)", "setting": "[3]; [5]", "value": 78, "unit": "L/h"}, {"measurement": "plasma AZT level required for AIDS treatment (Css)", "setting": "[3]; [5]", "value": 1000, "unit": "nM"}, {"measurement": "maintenance of an adequate AZT level in blood", "setting": "[3]; conventional oral administration, 5 mg/kg every 4 hours, Klecker et al. 1987", "value": "impossible to maintain an adequate AZT level in blood"}, {"measurement": "relative promotion rate", "setting": "[1]; [6]", "value": 6.2}, {"measurement": "F, AZT permeation rate", "setting": "[1]; [6]", "value": 0.28, "unit": "μmol/cm^2 /h"}, {"measurement": "relative promotion rate", "setting": "[1]; [7]", "value": 4.4}, {"measurement": "F, AZT permeation rate", "setting": "[1]; [7]", "value": 0.20, "unit": "μmol/cm^2 /h"}, {"measurement": "relative promotion rate", "setting": "[1]; [8]", "value": 16.4}, {"measurement": "F, AZT permeation rate", "setting": "[1]; [8]", "value": 0.74, "unit": "μmol/cm^2 /h"}, {"measurement": "relative promotion rate", "setting": "[1]; [9]", "value": 14.0}, {"measurement": "F, AZT permeation rate", "setting": "[1]; [9]", "value": 0.63, "unit": "μmol/cm^2 /h"}, {"measurement": "relative promotion rate", "setting": "[1]; [10]", "value": 49.3}, {"measurement": "F, AZT permeation rate", "setting": "[1]; [10]", "value": 2.22, "unit": "μmol/cm^2 /h"}, {"measurement": "relative promotion rate", "setting": "[1]; [11]", "value": 53.6}, {"measurement": "F, AZT permeation rate", "setting": "[1]; [11]", "value": 2.41, "unit": "μmol/cm^2 /h"}, {"measurement": "relative promotion rate", "setting": "[1]; [12]", "value": 71.6}, {"measurement": "F, AZT permeation rate", "setting": "[1]; [12]", "value": 3.22, "unit": "μmol/cm^2 /h"}, {"measurement": "relative promotion rate", "setting": "[1]; [13]", "value": 108}, {"measurement": "F, AZT permeation rate", "setting": "[1]; [13]", "value": 4.85, "unit": "μmol/cm^2 /h"}, {"measurement": "permeation rate during the stable permeation state (Fss)", "setting": "[1]; 37° C, 18.7 mM (5 mg/ml) AZT in 10% oleic acid, slope between 10 and 24 hours", "value": 0.045, "unit": "μmol/cm^2 /h"}, {"measurement": "percutaneous absorption of AZT", "setting": "[4]; applied to rat skin as a simple water solution (data not shown)", "value": "not observed at all"}, {"measurement": "percutaneous absorption of AZT, detection in plasma", "setting": "[4]; in the presence of oleic acid, rat", "value": "could be detected in the plasma over 24 hours"}, {"measurement": "drug level in the plasma after oral administration", "setting": "[4]; oral, 0.6 mg AZT, rat", "value": "undetectable at 6 hours after the administration"}, {"measurement": "concentration at 0.5 h", "setting": "[4]; [14]", "value": 200, "unit": "nM"}, {"measurement": "concentration at 1 h", "setting": "[4]; [14]", "value": 600, "unit": "nM"}, {"measurement": "concentration at 2 h", "setting": "[4]; [14]", "value": 700, "unit": "nM"}, {"measurement": "concentration at 4 h", "setting": "[4]; [14]", "value": 1500, "unit": "nM"}, {"measurement": "concentration at 6 h", "setting": "[4]; [14]", "value": 1500, "unit": "nM"}, {"measurement": "concentration at 8 h", "setting": "[4]; [14]", "value": 1500, "unit": "nM"}, {"measurement": "concentration at 24 h", "setting": "[4]; [14]", "value": 4000, "unit": "nM"}, {"measurement": "concentration at 0.5 h", "setting": "[4]; [15]", "value": 3100, "unit": "nM"}, {"measurement": "concentration at 1 h", "setting": "[4]; [15]", "value": 2500, "unit": "nM"}, {"measurement": "concentration at 2 h", "setting": "[4]; [15]", "value": 500, "unit": "nM"}, {"measurement": "concentration at 4 h", "setting": "[4]; [15]", "value": 200, "unit": "nM"}, {"measurement": "concentration at 6 h", "setting": "[4]; [15]", "value": "< 100", "unit": "nM"}, {"measurement": "concentration at 8 h", "setting": "[4]; [15]", "value": "< 100", "unit": "nM"}, {"measurement": "concentration at 24 h", "setting": "[4]; [15]", "value": "< 100", "unit": "nM"}]}, {"molecule": "CCCCCCCC/C=C\\CCCCCCCC(=O)O", "note": "[oleic acid]", "values": [{"measurement": "promotion of AZT permeation through the skin (in words)", "setting": "[1]", "value": "promoted permeation of AZT through the skin"}]}]}
